# Experimental data published in article PMC11218446, “Antibacterial efficacy and membrane mechanism of action of the Serratia-derived non-ionic lipopeptide, serrawettin W2-FL10” (Microbiology Spectrum, 2024).
# Like-named read-outs stand apart in the source and are kept apart here.
# Assays:
# Enterococcus faecium = conditions: cited from earlier work
# Source text: The antimicrobial activity of the serrawettin W2-FI10 analog (i.e., C10H18O2-Leu-Ser-Thr-Phe-Ile), has been extensively investigated.
# MRSA Xen 30 = type: cell-based, Staphylococcus aureus; conditions: for ICF / IC50 ± SE / MIC ± SE: resazurin
# Source text: (§1) Based on the broth microdilution assay results for W2-FL10 and melittin, the S. aureus ATCC 25923 (reference), S. aureus RN4220 (laboratory; MSSA), or methicillin-resistant S. aureus Xen 30 (clinical; MRSA) strains were selected for further antibacterial studies. Resazurin (also referred to as Alamar Blue) is a blue, non-fluorescent dye that can be reduced to resorufin (a pink, fluorescent compound) by metabolically active cells. The dye can thus be used as a quantitative indicator of cell viability ([52]). Therefore, a broth microdilution assay coupled with resazurin [prepared to a stock solution of 0.3 mg/mL in PBS; ([53])] was used to determine the influence of cations (Mg^2+ and Ca^2+), commercial LTA of S. aureus and DOPG on the potency of W2-FL10 against S. aureus ATCC 25923, S. aureus RN4220 and MRSA Xen 30 as described by Wu et al. ([54]).
# (§2) For investigating the influence of cations on the antibacterial potency of W2-FL10, a clear 96-well plate was prepared with W2-FL10 and air dried as described in the “Antibacterial activity: broth microdilution assay” section. The S. aureus strains were inoculated into MHB or CA-MHB, grown to mid-log phase (OD600 of 0.5–0.6), and diluted to OD600 of 0.4. A 1:20 dilution of the test strain (final concentration of ∼10^5 CFU/mL) was prepared and 100 µL was dispensed into each well (final concentration of W2-FL10 at 1.56 to 25 µg/mL). Sterile broth (i.e., MHB or CA-MHB) and the OD-adjusted inoculum were included in the assay as a positive control, while sterile broth (i.e., MHB or CA-MHB) was included as a sterility control. The plate was incubated for 24 h at 37°C.
# (§3) Similarly, the possible interaction and binding of LTA of S. aureus and DOPG (both at 1 mg/mL in 10% EtOH) with the lipopeptide W2-FL10 was investigated ([54]). Briefly, a clear 96-well plate was prepared with W2-FL10 and air dried as described in the “Antibacterial activity: broth microdilution assay” section. Thereafter, 10 µL of LTA from S. aureus or DOPG was dispensed into the respective wells. The S. aureus strains were grown to mid-log phase in MHB (OD600 of 0.5–0.6) and diluted to OD600 of 0.4. A 1:20 dilution of test strain (final concentration of ∼10^5 CFU/mL) was prepared, 100 µL was dispensed into each well (final concentration of W2-FL10 at 3.13 to 100 µg/mL), and the plate was incubated for 24 h at 37°C. Sterile broth, the OD-adjusted inoculum, and the respective LTA or DOPG were included in the assay as a positive control, while sterile broth and LTA or DOPG were included as a sterility control.
# (§4) After incubation of both plates, 10 µL of resazurin (0.3 mg/mL) was added to each well and the plate was incubated at 37°C for 1 h. Fluorometric readings of the experimental plates were conducted using a Tecan Spark 10M Multimode Microplate Reader at 560 nm excitation wavelength and 590 nm emission wavelength. For all resazurin assays, the percentage inhibition was calculated as described by van Rensburg et al. ([53]). All experiments were performed in triplicate, with independent biological duplicates. […] Dose-response curves (nonlinear regression using equation 1) were processed as described by Rautenbach et al. ([17]) (also see description above), and IC50 values were deduced from the best-fit sigmoidal curves (R^2 ≥ 0.98). Statistical analyses were done by comparing W2-FL10 IC50, in the presence of Ca^2+ and Mg^2+, in the presence of DOPG, and in the presence of LTA toward the control condition each of the three S. aureus strains using one-way analysis of variance (ANOVA) with Bonferroni’s post hoc test.
# S. aureus RN4220 = type: cell-based, Staphylococcus aureus; conditions: for ICF / IC50 ± SE / MIC ± SE: resazurin
# Source text: as §1, §2, §3, §4
# S. aureus ATCC 25923 = type: cell-based, Staphylococcus aureus; conditions: for ICF / IC50 ± SE / MIC ± SE: resazurin
# Source text: as §1, §2, §3, §4
# [1] = LTA 100 µg/mL vs control, P < 0.001
# [2] = LTA of S. aureus 100 µg/mL, n = 3
# [3] = Control (MHB), 24 h 37°C, n = 4
structure (smiles),measurement,setting,value
"CCCCCCCC1CC(=O)N[C@H](CC(C)C)C(=O)N[C@@H](CO)C(=O)N[C@@H]([C@@H](C)O)C(=O)N[C@H](Cc2ccccc2)C(=O)N[C@@H](CC(C)C)C(=O)O1 (stereo partly shown) [W2-FL10, serrawettin W2-FL10]",minimum inhibitory concentration (MIC),Enterococcus faecium,15.6 µg/mL
same,increase in the IC50 in the presence of LTA,MRSA Xen 30; [1],twofold
same,ICF,MRSA Xen 30; Ca2+ and Mg2+ (CA-MHB),1.7
same,IC50 ± SE,"MRSA Xen 30; Ca2+ and Mg2+ (CA-MHB), n = 4",12.2±0.2 (5) 9.5±1.5 (4) 40.6±2.0 (4) 24.6±0.1 (4) µg/mL
same,MIC ± SE,"MRSA Xen 30; Ca2+ and Mg2+ (CA-MHB), n = 4",12.5 ± 0.0 µg/mL
same,ICF,MRSA Xen 30; Control (MHB),3.4
same,MIC ± SE,"MRSA Xen 30; Control (MHB), 24 h 37°C, n = 5",22.5 ± 2.5 µg/mL
same,IC50 ± SE,"MRSA Xen 30; Control (MHB), n = 5",12.2 µg/mL
same,ICF,MRSA Xen 30; DOPG 100 µg/mL,2.4
same,IC50 ± SE,"MRSA Xen 30; DOPG 100 µg/mL, n = 4",40.6 µg/mL
same,MIC ± SE,"MRSA Xen 30; DOPG 100 µg/mL, n = 4",62.5 ± 12.5 µg/mL
same,ICF,MRSA Xen 30; LTA 100 µg/mL,4.1
same,IC50 ± SE,"MRSA Xen 30; LTA 100 µg/mL, n = 4",24.6 µg/mL
same,MIC ± SE,MRSA Xen 30; [2],50.0 ± 17.7 µg/mL
same,increase in the IC50 in the presence of LTA,S. aureus RN4220; [1],twofold
same,ICF,S. aureus RN4220; Ca2+ and Mg2+ (CA-MHB),6.3
same,IC50 ± SE,"S. aureus RN4220; Ca2+ and Mg2+ (CA-MHB), n = 3",10 µg/mL
same,MIC ± SE,"S. aureus RN4220; Ca2+ and Mg2+ (CA-MHB), n = 3",25.0 ± 0.0 µg/mL
same,ICF,S. aureus RN4220; Control (MHB),3.6
same,MIC ± SE,S. aureus RN4220; [3],25.0 ± 0.0 µg/mL
same,IC50 ± SE,"S. aureus RN4220; Control (MHB), n = 4",13.2 µg/mL
same,ICF,S. aureus RN4220; DOPG 100 µg/mL,2.2
same,IC50 ± SE,"S. aureus RN4220; DOPG 100 µg/mL, n = 3",44.6 µg/mL
same,MIC ± SE,"S. aureus RN4220; DOPG 100 µg/mL, n = 3",66.7 ± 16.7 µg/mL
same,ICF,S. aureus RN4220; LTA 100 µg/mL,3.5
same,IC50 ± SE,"S. aureus RN4220; LTA 100 µg/mL, n = 3",26.8 µg/mL
same,MIC ± SE,S. aureus RN4220; [2],50.0 ± 0.0 µg/mL
same,increase in the IC50 in the presence of DOPG,"S. aureus ATCC 25923; DOPG 100 µg/mL vs control, P < 0.001",twofold
same,ICF,S. aureus ATCC 25923; Ca2+ and Mg2+ (CA-MHB),2.2
same,IC50 ± SE,"S. aureus ATCC 25923; Ca2+ and Mg2+ (CA-MHB), n = 4",8.4 µg/mL
same,MIC ± SE,"S. aureus ATCC 25923; Ca2+ and Mg2+ (CA-MHB), n = 4",12.5 ± 0.0 µg/mL
same,ICF,S. aureus ATCC 25923; Control (MHB),4.3
same,MIC ± SE,S. aureus ATCC 25923; [3],21.9 ± 3.1 µg/mL
same,IC50 ± SE,"S. aureus ATCC 25923; Control (MHB), n = 4",10.6 µg/mL
same,ICF,S. aureus ATCC 25923; DOPG 100 µg/mL,6.3
same,IC50 ± SE,"S. aureus ATCC 25923; DOPG 100 µg/mL, n = 4",22.5 µg/mL
same,MIC ± SE,"S. aureus ATCC 25923; DOPG 100 µg/mL, n = 4",56.3 ± 15.7 µg/mL
same,ICF,S. aureus ATCC 25923; LTA 100 µg/mL,6.3
same,IC50 ± SE,"S. aureus ATCC 25923; LTA 100 µg/mL, n = 4",16.6 µg/mL
same,MIC ± SE,S. aureus ATCC 25923; [2],41.7 ± 8.3 µg/mL
